# Measured values from patent US20140087451A1, “ACOUSTIC WAVE (AW) SENSING DEVICES USING LIVE CELLS” (University of Massachusetts, priority 2010, published 2014).
# Experiments:
# [1] = system: HMVEC-L cells; assay: Commercial quartz crystal microbalance (QCM), 10 MHz fundamental frequency, equivalent prior experiments; type: cell-based, human
# [2] = system: Human Microvascular Endothelial Cells derived from Lung (HMVEC-L); assay: Surface acoustic wave (SAW) device, 21 MHz, frequency and attenuation response of attached cells; type: cell-based; conditions: for sensitivity (frequency shift normalized to operating frequency and number of live attached cells): SAW 21 MHz
# Description: An AT cut quartz wafer was prepared with electrodes for a surface acoustic wave (SAW) patterned on one side. The transmitting and receiving electrodes were composed of interdigitated (IDT) electrodes fabricated by lift off of gold deposited by electron beam evaporation. The IDTs were composed of 120 pairs of electrode fingers. This spacing corresponds to the wavelength of a SAW of 21 MHz. The sensing area between the IDTs was 20×8 mm. A 2 μm thick layer of poly(methylmethacrylate) (PMMA) was spin coated onto the surface of the SAW to serve as an insulating layer for the IDTs as well as a waveguide for the Love waves generated by the transmitting IDT.
# The SAW was connected to an Agilent E5061B network analyzer, set up for transmission measurements (s12). Before liquid was added, the resonant frequency of 21 MHz was confirmed. Using Labview software, the resonant frequency and attenuation of the SAW was measured once per second during an experiment. A drop of cell media containing cells was placed in the sensing area allowing cells to attach, as described below.
# The Human Microvascular Endothelial Cells derived from Lung (HMVEC-L) cell line was obtained from Lonza (Basel, Switzerland) and stock cultures were established and grown in media recommended by the manufacturers, at 37° C. in a humidity controlled incubator with 5% CO2, unless otherwise noted. The media used was EBM™-2, (CC-3156) (Lonza Basel, Switzerland) with EGM™-2-MV BulletKit™ (CC-3202) (Lonza Basel, Switzerland) containing hEGF, Hydrocortisone, GA-1000 (Gentamicin, Amphotericin-B), VEGE, hFGF-B, R3-IGF-1 and 5% FBS. The HMVEC-L cells were grown in 25 cm^2 rectangular canted neck cell culture flasks with vented caps (Corning Life Science, Lowell, Mass.), and re-fed every three days and passaged once a week using a 0.05% solution of trypsin:EGTA (Invitrogen, Carlsbad, Calif.) as stock cultures.
# Two different treatments of the cells on the SAW device were carried out in separate experiments. […] All the solutions were stored at 4° C. in a refrigerator. Prior to cell plating onto the SAW device, the SAW device was cleaned by rinsing with distilled water and then UV sterilized for 30 min. After sterilization and further washing with water and Phosphate Buffered Saline (PBS), 50 μl of medium containing 20,000 HMVEC-L cells was added to the sensing area of the SAW device, which had been previously placed within a 150 mm diameter Petri dish. Smaller Petri dishes filled with reservoirs of media were placed around the central SAW device, in order to provide additional surface area for evaporation of water. The purpose of this arrangement, large volume and area reservoirs of iso-osmotic pressure media in the Petri dishes, was to prevent evaporative loss of water from the small volume of media covering the cells in the sensing area of the SAW device. The SAW device in the large covered Petri dish was located on the bench top in ambient air. The Petri dish cover was removed and cells were plated in media onto the sensing area surface of the SAW device and the HMVEC-L cells in the covered Petri dish were allowed to attach to the sensing area SAW device surface for 18 hr. Then, the media was changed with 50 μl fresh medium.
# [3] = system: its specific growth factor receptor; conditions: stated as 'has been shown'; cited from earlier work
# [4] = system: HMECs; conditions: bFGF added to HMECs; cited from earlier work
# [5] = system: Human Mammary Epithelial Cells (HMECs); assay: QCM (10 MHz) fundamental and third overtone frequency shift with attached cells treated with growth factor; type: cell-based; conditions: bFGF 12.5 ng/ml final; 20,000 HMEC cells on 10 MHz QCM; 300 min after addition; FIG. 6
# Description: An AT cut 0.538″ diameter quartz disk with 100 nm thick gold electrodes was used for the piezoelectric medium in this experiment. A polydimethylsiloxane (PDMS) tube with an outer diameter of 0.4″ and an inner diameter of 0.3″ and 0.3″ high was attached to one side of the quartz disk for use as a reservoir for cell media. The quartz crystal was mounted in a HC35/U holder with silver epoxy bonding between the electrodes and the gold electrodes on the crystal.
# The oscillator circuitry is a Colpitts oscillator, shown in FIG. 7, modified to enable the quartz to undergo shear wave oscillations under a liquid load. The thickness of the crystal is such that an unloaded crystal oscillating in air would operate at 10 MHz. The Colpitts oscillator was tuned to only amplify frequencies in the range of 10 MHz. A second class C amplifier operating as a frequency multiplier was connected to the ungrounded electrode of the quartz crystal. The multiplier was tuned to capture the crystal's third harmonic oscillations. The output of the multiplier and the voltage at the crystal were connected to the inputs of a two channel oscilloscope. The waveforms were digitally captured using Labview software and passed through a fast Fourier transform. The frequency of the signals were captured and recorded at one minute intervals, prior to and following addition of cells to the crystal surface. […]
compound,measurement,setting,value
trypsin,equivalent sensitivity,[1]; trypsinization experiment,1×10^−8 /cell
same,abrupt increase in frequency,"[2]; 0.05% trypsin:EGTA, cell release, 20,000 HMVEC-L cells on SAW sensing area, FIG. 12",about 60 kHz
same,sensitivity (frequency shift normalized to operating frequency and number of live attached cells),[2]; Trypsin enzymatic removal experiment,3.75×10^−7 /cell
"[N-]=[N+]=[N-] [sodium azide, Sodium azide]",equivalent sensitivity,[1]; 50 mM azide experiment,4.1×10^−9 /cell
same,change in Attenuation values,"[2]; 50 mM sodium azide final, 20,000 HMVEC-L cells on SAW device, FIG. 11",approximately 8 dBm
same,increase in frequency,"[2]; 50 mM sodium azide final, 20,000 HMVEC-L cells on SAW sensing area, 4 hr after addition, FIG. 11",about 17 kHz
same,sensitivity (frequency shift normalized to operating frequency and number of live attached cells),[2]; 50 mM sodium azide experiment,5.6×10^−8 /cell
"bFGF: Basic human Fibroblast Growth Factor from Sigma, reconstituted in 50 mM Tris-HCl pH7.5",time to bind and activate its specific growth factor receptor,[3],≤ 8 min
same,lag time of proliferative response (increase in thymidine incorporation),[4],about 21 hr
same,frequency shift of third overtone compared to the fundamental in response to the growth factor,[5],larger frequency shift
